Assay results reported in paper PMC8749431 (mBio, 2022).
Where two headings read alike, the source gives them in different places.

Tests used:
VSV-Gpp = format: cell-based, vesicular stomatitis virus
[1] = test system: SARS-CoV-2 S protein-mediated cell-cell fusion; format: cell-based; details: 30, 10, 3, 1 μM; 48 h
[2] = test system: SARS-CoV-2 S protein-mediated cell-cell fusion; format: cell-based; details: 30 μM; 48 h
in vitro [3] = details: African green monkey
in vitro [4] = details: human
in vitro [5] = details: human; remark: listed apart in the source
[6] = target: recombinant SARS-CoV-2 S1-S2 protein (Severe acute respiratory syndrome coronavirus 2, UniProt P0DTC2); format: binding
icSARS-CoV-2-mNeonGreen = format: cell-based, SARS-CoV-2
SARS-CoV-2-NLuc = assay: microbe, parasite or virus in culture; format: cell-based; details: Severe acute respiratory syndrome coronavirus 2, Vero C1008
[7] = test system: wild-type SARS-CoV-2 (2019-nCoV/USA-WA1/2020 strain); format: cell-based
[8] = test system: SARS2-Spp binding to Huh7 cells; format: cell-based, SARS-CoV-2
SARS2-Spp = format: cell-based, SARS-CoV-2

Molecule | inhibition of VSV-Gpp entry (VSV-Gpp) | inhibition of donor-recipient fusion events (SmBit-LgBit) [1] | inhibition of fusion (GFP-RFP colocalization) [2] | CC50 (in vitro [3]) [µM] | CC50 (in vitro [4]) [µM] | CC50 (in vitro [5]) [µM] | suppression of viral RNA levels [7] | effect on viral binding to cells [8] | inhibition when present at early entry time points (SARS2-Spp) | inhibition when present during binding (SARS2-Spp) | also measured
CN1CCN([C@@H](c2ccccc2)c2ccc(Cl)cc2)CC1 [(S)-CCZ, (S)-chlorcyclizine] | no inhibition | inhibited | showed inhibition | 36.2 | > 100 | > 30 |  |  |  |  | CC50 (Huh7 cells; human): 41.7 µM
O=C(CCCCC1SCC2NC(=O)NC21)NCCOCCOCCN1CCN(C(c2ccc(Cl)cc2)c2ccc(C3(C(F)(F)F)N=N3)cc2)CC1 (centres unmarked) [CCZ-DB] |  |  |  |  |  |  |  |  |  |  | binding to recombinant S1-S2 protein by cross-linking ([6]; 10 µM probe, UV irradiation, Neutravidin pull-down, anti-S2 blot): direct binding
CN(C)C(=O)COC(=O)Cc1ccc(OC(=O)c2ccc(NC(=N)N)cc2)cc1 [Camostat, camostat] |  | did not suppress | did not decrease | > 100 | > 100 | > 100 |  |  |  |  | 
CCN(CC)CCCC(C)Nc1ccnc2cc(Cl)ccc12 (centres unmarked) [Chloroquine, chloroquine] | strong inhibition |  |  | > 100 | > 100 | > 30 |  |  |  |  | CC50 (Huh7 cells; human): 37.5 µM
CCN1CCN(C(c2ccc(Cl)cc2)c2ccc(Cl)cc2)CC1 [Dichlorcyclizine, dichlorcyclizine] | no inhibition | potent inhibition | strong inhibition | > 100 | > 100 |  | up to 2 log | little or no effect | potent inhibition | minimal inhibition | EC50 (icSARS-CoV-2-mNeonGreen): single-digit micromolar range; EC50 (SARS-CoV-2-NLuc): 4.99 µM; competition of probe cross-linking to the spike protein ([6]; 30-fold excess over CCZ-DB): could outcompete
CCOC(=O)[C@H]1O[C@@H]1C(=O)N[C@@H](CC(C)C)C(=O)NCCC(C)C [E-64d] |  | did not suppress | did not decrease |  |  |  |  | little or no effect | displayed inhibition | displayed inhibition | inhibition when present at middle entry time point (SARS2-Spp): displayed inhibition; CC50 (MA104 cells): > 100 µM; CC50 (293ACE2 cells): > 100 µM; CC50 (Huh7 cells): > 100 µM
Cc1cc(-c2nc(CN3CCC(C(=O)NCCCN4C[C@H](C)C[C@H](C)C4)CC3)co2)ccc1F [Fluoxazolevir, fluoxazolevir] | minimal | inhibited | showed inhibition | > 100 | > 100 | 32.7 | up to 2 log | little or no effect | potent inhibition | minimal inhibition | EC50 (icSARS-CoV-2-mNeonGreen): single-digit micromolar range; EC50 (SARS-CoV-2-NLuc): 1.96 µM
CCC(CC)COC(=O)[C@H](C)N[P@](=O)(OC[C@H]1O[C@@](C#N)(c2ccc3c(N)ncnn23)[C@H](O)[C@@H]1O)Oc1ccccc1 [remdesivir] |  |  |  |  |  |  | up to 3 log |  |  |  | 
Heparan sulfate |  |  |  |  |  |  |  | significantly inhibited |  |  | 
